We go through 41 compounds from ChEMBL document CHEMBL1201862, “PubChem BioAssay data set” (2004).

The source made the active and inactive calls. Rule as the data show it, for most assays here: actives have a measured EC50 and inactives only a lower limit. Where only a bound is given, the exact number is not on record here.

As usually defined, the CC50 is the concentration that lowers cell viability or growth by half. For orientation: AC50 means the midpoint of the concentration-response curve, whichever way the signal moves.

The subject of assay [1] is Streptococcus sp. 'group A'. The assay is described as follows: growth inhibition of control SK(-) GAS strain, dose response, counter-screen for streptokinase expression inhibitor project, luminescence, kanamycin, BacTiterGlo, confirmation (AID 1900). Format: functional, organism-based. On the technique in general: The purpose of a counterscreen is to sort out artefacts and off-target activity.

Another assay concerns the target T1, Streptokinase A (Streptococcus pyogenes serotype M1, UniProt P10520).
T1 sequence (P10520 whole entry): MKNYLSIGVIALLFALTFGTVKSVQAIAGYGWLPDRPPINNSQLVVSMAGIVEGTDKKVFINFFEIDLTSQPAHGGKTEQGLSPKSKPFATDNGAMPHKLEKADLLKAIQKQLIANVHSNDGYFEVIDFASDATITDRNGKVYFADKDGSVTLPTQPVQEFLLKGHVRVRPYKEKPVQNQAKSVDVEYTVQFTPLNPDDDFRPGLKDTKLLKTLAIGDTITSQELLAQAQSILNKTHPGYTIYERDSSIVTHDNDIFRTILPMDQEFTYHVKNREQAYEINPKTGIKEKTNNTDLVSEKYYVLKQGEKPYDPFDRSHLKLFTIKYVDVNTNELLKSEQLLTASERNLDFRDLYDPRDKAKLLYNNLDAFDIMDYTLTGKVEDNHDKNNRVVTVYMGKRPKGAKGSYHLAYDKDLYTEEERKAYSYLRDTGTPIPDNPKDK
The assay is described as follows: S. pyogenes streptokinase expression inhibitors, potency, dose response, plasminogen activation absorbance, OD405 (AID 1914).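 Also: secreted streptokinase activity via plasminogen activation per viability signal from cell pellet.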 It is filed as functional, Streptococcus pyogenes M1 GAS.

Another assay relates to Streptococcus. The assay is described as follows: Group A Streptococcus viability loss, dose response, counter-screen for streptokinase expression inhibitor project, luminescence, BacTiterGlo (AID 1915).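 Also: potency for reduction of bacterial viability or growth.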 It is filed as functional, organism-based.
A short description of assay [2]: Luminescence Cell-Based Dose Response HTS to Identify Activators of Luciferase Translation or Activity in H4 […] Cells. [Related pubchem assays: 1829 (Project Summary), 1814 (Primary HTS)]. Format: functional.
Another assay relates to H4. The assay is described as follows: Luminescence Cell-Based Dose Response HTS to Identify Activators of 5'UTR Stem-Loop Driven Prion Protein mRNA Translation in H4 Neuroglioblastoma Cells. [Related pubchem assays: 1829 (Project Summary), 1814 (Primary HTS)]. The conditions noted are these: Homo sapiens. It is filed as functional.
Assay [3] can be described thus: HEp-2 cell cytotoxicity, dose response, cytotoxicity control for RSV inhibitor project, HTS (AID 2410). Format: functional. Particulars: human respiratory syncytial virus.
Assay [4] is described as follows: Luminescence Cell-Based Dose Retest to Confirm Inhibitors of Cancer Stem Cells. [Related pubchem assays (depositor defined):AID2717, AID2721]. It is filed as functional. Particulars: Homo sapiens.
For a further assay, the target named is Cytochrome P450 2D6 (Homo sapiens, UniProt P10635).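 Also: CYP2D6 member of a cytochrome P450 panel assay.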
Cytochrome P450 2D6, sequence (P10635 whole entry): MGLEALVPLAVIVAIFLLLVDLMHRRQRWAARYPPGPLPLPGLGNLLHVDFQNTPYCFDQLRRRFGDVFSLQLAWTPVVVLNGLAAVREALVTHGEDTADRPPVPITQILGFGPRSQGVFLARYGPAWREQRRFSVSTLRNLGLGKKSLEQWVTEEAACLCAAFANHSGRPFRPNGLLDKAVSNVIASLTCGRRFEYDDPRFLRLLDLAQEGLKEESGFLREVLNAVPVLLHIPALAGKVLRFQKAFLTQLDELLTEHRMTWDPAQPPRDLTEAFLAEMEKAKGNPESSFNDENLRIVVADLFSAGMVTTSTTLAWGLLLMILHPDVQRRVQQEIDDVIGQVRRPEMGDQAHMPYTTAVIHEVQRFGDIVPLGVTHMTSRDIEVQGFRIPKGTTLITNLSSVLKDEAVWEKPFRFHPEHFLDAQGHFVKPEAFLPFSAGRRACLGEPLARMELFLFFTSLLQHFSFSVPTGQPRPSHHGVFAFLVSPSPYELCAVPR
A short description of assay [5]: control 3'UTR Renilla luciferase suppression, dose response, counter-screen for Shn3 inhibitor project, cell-based, Clone20-Shn3RL, cherry-picked (AID 624133). Format: functional.
The target in assay [6] is T2, Corticotropin-releasing factor receptor 2/Corticotropin-releasing factor-binding protein (Homo sapiens, UniProt P24387+Q13324).
T2 sequence (Q13324 whole entry): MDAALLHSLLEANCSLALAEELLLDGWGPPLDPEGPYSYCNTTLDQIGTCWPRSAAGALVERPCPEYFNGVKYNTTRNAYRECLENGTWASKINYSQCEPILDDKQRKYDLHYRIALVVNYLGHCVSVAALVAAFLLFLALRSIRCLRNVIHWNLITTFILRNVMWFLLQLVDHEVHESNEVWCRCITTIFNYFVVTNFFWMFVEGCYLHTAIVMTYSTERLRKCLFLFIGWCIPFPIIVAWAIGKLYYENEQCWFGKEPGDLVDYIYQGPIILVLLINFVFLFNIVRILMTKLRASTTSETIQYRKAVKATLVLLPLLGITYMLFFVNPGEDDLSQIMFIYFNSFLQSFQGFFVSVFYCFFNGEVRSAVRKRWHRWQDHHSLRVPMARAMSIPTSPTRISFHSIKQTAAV
T2 sequence (P24387 whole entry): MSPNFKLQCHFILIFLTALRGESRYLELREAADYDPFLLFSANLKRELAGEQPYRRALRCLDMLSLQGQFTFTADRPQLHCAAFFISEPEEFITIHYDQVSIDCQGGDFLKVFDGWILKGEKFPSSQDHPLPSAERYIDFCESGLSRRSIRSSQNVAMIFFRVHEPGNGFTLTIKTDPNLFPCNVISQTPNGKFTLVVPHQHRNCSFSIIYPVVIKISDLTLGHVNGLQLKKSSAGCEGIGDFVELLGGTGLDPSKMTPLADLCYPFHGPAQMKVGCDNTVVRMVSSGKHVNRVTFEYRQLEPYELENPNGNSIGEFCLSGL
The assay is described as follows: activators of CRF receptor 2 with binding protein – uHTS hits, confirmation (AID 602473). Format: functional. Particulars: read-out: EC50_Mean.

Assay [7] is described as follows: inhibitors of firefly luciferase expression or activity, dose response, H4 neuroglioma cells, luminescence (AID 1990). It is filed as functional, cell-based.
The nature of assay [8]: Luminescence Cell-Based Dose Response HTS to Identify Inhibitors of 5'UTR Stem-Loop Driven Prion Protein mRNA Translation in H4 Neuroglioblastoma Cells. [Related pubchem assays: 1827 (Project Summary), 1813 (Primary HTS)]. Format: functional.
The nature of assay [9]: inhibitors of SNCA 5'UTR-driven reporter translation, confirmation, H4 neuroglioma cells, luminescence (AID 1988). It is filed as functional, cell-based.
A short description of assay [10]: inhibitors of intracellular T. cruzi replication, confirmation, NIH3T3 host cells, beta-gal luminescence (AID 2044).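 Also: intracellular parasites grown in NIH/3T3 mouse fibroblasts as host cells; luminescent beta-galactosidase reporter signal from transgenic T. cruzi replicating inside host cells; inhibitors lower the luminescence signal.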 It is filed as functional, cell-based.
The nature of assay [11]: cytotoxicity toward NIH3T3 fibroblasts, dose response, counter-screen, cell-based, ATP luminescence, mouse fibroblasts (AID 2010).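 Also: cells exposed to compound for about 90 hours before reading.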 Format: functional.

`c1ccc(CCNc2nc(-c3ccccn3)cs2)cc1`: the EC50 in [1] was 7.29 µM (active); on Streptokinase A, > 150 µM (not active); in the assay on Streptococcus, 14.2 µM (active).

As for `CC(=O)c1cccc(NC(=O)C(=O)Nc2cccc3ccccc23)c1`, the EC50 in [2] was 13.3 µM (active); in the assay with H4, 10.7 µM (active).

In the case of `COc1cc(OC)cc(C(=O)Nc2nc3ccccc3[nH]2)c1`, the EC50 in [1] is 7.14 µM (active); on Streptokinase A it was > 150 µM (not active); with Streptococcus it was > 150 µM (not active).

As for `Clc1ccccc1CN(Cc1ccccc1)c1ncnc2nc[nH]c12`, the EC50 at Streptokinase A is given as > 150 µM (not active).

Consider `O=C(Nc1ccc(OC(F)(F)F)cc1)C1CCCN(S(=O)(=O)c2c[nH]cn2)C1` (configuration not stated), for which the EC50 (in assay [1]; at Streptokinase A; in the assay on Streptococcus) was > 150 µM (not active) each time.

Take `Cc1ccccc1OCC(=O)Nc1ccccc1N1CCC(C)CC1`: the EC50 in [1] is 6.64 µM (active); at Streptokinase A, 45 µM (active); in the assay on Streptococcus, 11.1 µM (active).

As for `O=CNn1cnc2c(oc3nc(-c4ccccc4)cc(-c4ccco4)c32)c1=O`, the CC50 in assay [3] is 9.82 µM (active).

Regarding `CC(=O)Nc1ccc(-c2csc(NC(=O)Cc3ccccc3F)n2)cc1`, the AC50 in assay [4] is 9.04 µM (active).

Take `O=C(Nc1ccc(-c2cn3ccsc3n2)cc1)C1CC1`: the results for the EC50 (in assay [2]; in the assay with H4) were 0.487 µM (active) and 4.21 µM (active), respectively.

In the case of `Oc1cccc(Nc2nc(O)c(/C=C3\C=Nc4ccccc43)s2)c1`, in assay [3], the CC50 was 15.3 µM (active).

With `O=C1NC(=O)/C(=C/c2c[nH]c3ccc(Br)cc23)N1`, in assay [3], the CC50 is 24.8 µM (active).

For `CCOC(=O)c1c(NC(=O)/C=C\C(=O)O)sc(C)c1-c1ccccc1`, the CC50 in assay [3] is 19.4 µM (active).

Take `COc1ccc(-c2cnc(SCC(=O)Nc3nc(C(C)(C)C)cs3)n2Cc2ccco2)cc1`: the CC50 in assay [3] is 9.59 µM (active).

For the compound `COc1ccc(-c2nc(N)nc(C)c2Oc2ccccc2Br)c(O)c1`, in assay [4], the AC50 is 1.96 µM (active).

Regarding `O=C(Cn1nc(C(F)F)cc1C(F)F)N/N=C/c1ccc2c(c1)OCO2`, on Cytochrome P450 2D6, the AC50 is 2.82 µM (inconclusive).

As to `CCC(C)c1ccc(C(C)N=C(S)NC2CCCCC2)cc1` (configuration not stated), the EC50 in assay [1] was 8.05 µM (active); on Streptokinase A it was 146 µM (active); in the assay on Streptococcus it was 18.1 µM (active).

On to `Cc1ccc2c[nH]nc2c1[N+](=O)[O-]`, for which the CC50 in assay [3] was 42.8 µM (active).

For the compound `C(=N\Nc1nc(N2CCCCCC2)nc(N2CCCCCC2)n1)/c1ccccc1`, the CC50 in assay [3] was 28.4 µM (active).

In the case of `O=C(Nc1ccccc1)N1CCC2(CCNCC2)CC1`, the AC50 at Cytochrome P450 2D6 was 25.1 µM (inconclusive).

For `COc1ccc2[nH]cc(CCNc3ncnc4ccc(-c5cccc(C#N)c5)cc34)c2c1`, the AC50 on Cytochrome P450 2D6 was 3.16 µM (inconclusive).

Regarding `COc1c(C)cc(C(=O)C2CCCN(C(=O)c3cccc(-n4cccn4)c3)C2)cc1C` (configuration not stated), the AC50 in assay [5] was > 70 µM (inactive).

On to `CC(=O)Nc1ccc(C2CC(c3ccc(Cl)cc3)=NN2c2ccccc2)cc1` (configuration not stated), for which the CC50 in assay [3] is 47.5 µM (active). Besides, the AC50 in assay [4] was 1.64 µM (active).

On to `CC(C)S(=O)(=O)c1csc(NC(=O)Nc2ccc(Cl)cc2)c1Cl`, for which the figures for the EC50 (in assay [1]; at Streptokinase A; in the assay with Streptococcus) were 12.1 µM (active), 74.3 µM (active) and > 150 µM (not active), respectively.

Take `COc1ccc(C(=O)NC2CCCCCC2)cc1S(=O)(=O)N1CCOCC1`: the EC50 (in assay [1]; at Streptokinase A; in the assay on Streptococcus) was > 150 µM (not active) in each case.

Turning to `CC(=O)c1ccc(NC(=S)NC(=O)Cc2ccc(Cl)cc2)cc1`, the EC50 in [6] was 13.2 µM (active).

On to `CCOc1cc(/C=N/O)cc(Br)c1OCc1ccc(Cl)cc1`, for which the AC50 in assay [4] is 3.77 µM (active).

`O=[N+]([O-])c1ccc(-c2ccc(/C=N/Nc3nc(N4CCCCC4)nc(N4CCCCC4)n3)o2)cc1`: the EC50 in assay [6] was 5.96 µM (active).

For `CC(=O)c1cccc(NC(=S)NC(=O)Cc2ccc(Cl)cc2)c1`, the EC50 in assay [6] is > 53 µM (inactive).

Turning to `Oc1[nH]c2ccc(Br)cc2c1N=NC(S)=Nc1ccc(F)cc1`, the EC50 is 15.5 µM (inconclusive) in assay [7]; 0.074 µM (active) in [1]; > 120 µM (not active) in assay [8]; 9.77 µM (active) in assay [9]; 1.63 µM (active) in assay [10]; 7.03 µM (active) in assay [11]. Further, the EC50 with Streptococcus is 1.39 µM (active).

On to `CN(C)/C=C1\SC(=S)N(c2ccc(Br)cc2)C1=O`, for which the EC50 in assay [1] is 7.37 µM (active); at Streptokinase A it was 17.2 µM (active); in the assay on Streptococcus it was 52.3 µM (active).

Consider `O=c1c(-c2ccccc2)coc2cc(O)ccc12` [7-HYDROXY ISOFLAVONE], for which the 50% cytotoxic concentration (CC50) in [3] is 46.3 µM (active).

Regarding `O=C1C=C(c2cc(C(F)(F)F)cc(C(F)(F)F)c2)C[C@@H](c2ccc(Cl)cc2)C1`, the CC50 in assay [3] was 17.3 µM (active).

Consider `COc1ccc(C2CC(c3ccc(Br)cc3)=NN2C(=O)CSC2=NCCS2)cc1` (configuration not stated), for which the CC50 in assay [3] is 24.1 µM (active).

For `CCOC(=O)c1ccc(COC(=O)c2ccc3c(c2)-c2ccccc2C3=O)cc1`, in [3], the CC50 is 20.8 µM (active).

For `OC(CNCCc1ccccc1)COc1ccc(OCC(O)CNCCc2ccccc2)cc1` (configuration not stated), the EC50 in assay [7] was 9.08 µM (active); in assay [8], > 120 µM (not active); in assay [9], 8.27 µM (active).

`CN(C)Cc1ccccc1-c1cc(NCc2ccccc2)ncn1`: the AC50 at Cytochrome P450 2D6 is 15.8 µM (inconclusive).

Consider `COc1cccc(CNc2nc(SC)ncc2CO)c1`, for which the results for the EC50 in assay [7], in assay [8] and in assay [9] were 13.5 µM (active), 27.1 µM (active) and > 120 µM (not active), respectively.

Regarding `Cc1cccc(CNc2cc(-c3cccc(C#N)c3)ncn2)c1`, the AC50 at Cytochrome P450 2D6 is 25.1 µM (inconclusive).

Consider `CC(C)c1nc(N2CCCC2)c(C#N)c2c1CCCC2`, for which the results for the EC50 (in [1]; on Streptokinase A; in the assay with Streptococcus) were 4.2 µM (active), > 150 µM (not active) and 7.01 µM (active), respectively.

Regarding `FC(F)(F)c1ccccc1-c1cc(NCc2cccs2)ncn1`, the AC50 on Cytochrome P450 2D6 was 25.1 µM (inconclusive).

`CCC(C)Sc1cccc(-c2nc3cc(C)ccn3c2NCc2ccccc2)c1` (configuration not stated): the AC50 in assay [4] was 5.14 µM (active).
